Measured values published in US20100056508A1, “AMINE DERIVATIVES AND THEIR USE IN BETA-2-ADRENORECEPTOR MEDIATED DISEASES” (ASTRAZENECA AB, priority 2006, published 2010).
Structures can show the parent of a compound that is named as a salt.

Target: T1, recombinant human α1D receptor (Homo sapiens, UniProt P25100)
T1 construct: expressed in transfected cells; host or cells: human embryonic kidney 293 cells (HEK93 [sic]), membranes
T1 sequence (P25100 1-572): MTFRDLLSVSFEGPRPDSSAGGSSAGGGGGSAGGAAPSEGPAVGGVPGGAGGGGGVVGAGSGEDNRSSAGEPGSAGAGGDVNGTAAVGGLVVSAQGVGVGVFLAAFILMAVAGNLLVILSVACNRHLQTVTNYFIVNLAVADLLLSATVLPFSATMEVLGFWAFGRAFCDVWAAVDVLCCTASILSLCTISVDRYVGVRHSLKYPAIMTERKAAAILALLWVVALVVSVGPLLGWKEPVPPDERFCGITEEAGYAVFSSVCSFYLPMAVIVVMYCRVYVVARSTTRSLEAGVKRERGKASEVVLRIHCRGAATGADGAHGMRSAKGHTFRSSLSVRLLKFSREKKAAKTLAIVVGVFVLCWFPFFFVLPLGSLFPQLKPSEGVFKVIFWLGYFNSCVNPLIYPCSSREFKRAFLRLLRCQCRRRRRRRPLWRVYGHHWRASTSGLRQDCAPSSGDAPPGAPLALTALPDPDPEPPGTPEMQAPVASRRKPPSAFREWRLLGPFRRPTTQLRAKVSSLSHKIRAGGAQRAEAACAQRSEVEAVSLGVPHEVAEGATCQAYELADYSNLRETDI
Assay: Adrenergic α1D selectivity assay, [3H]-prazosin binding to membranes
Details: inhibition of [3H]-prazosin binding, HEK cell membranes, read-out: α1 bind pIC50 (converted)
How it was run: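 Competition binding on HEK293 membranes with recombinant human α1D receptor, 0.3 nM [3H]-prazosin, 50 mM HEPES/1 mM EDTA pH 7.4, 2 h at room temperature; filtration and scintillation counting. Non-specific binding defined with 10 μM BMY7378. pIC50 from four-parameter logistic fit of specific-binding inhibition.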

SMILES	IC50 [nM]
O=C1COc2c(CCNCCN(C(=O)CCNCCc3cccc(Cl)c3Cl)C3CCCCC3)ccc(O)c2N1 [Example 29, N-Cyclohexyl-3-(2,3-dichlorophenethylamino)-N-(2-(2-(5-hydroxy-3-oxo-3,4-dihydro-2H-benzo[b][1,4]oxazin-8-yl)ethylamino)ethyl)propanamide bis(trifluoroacetate)]	126
O=C1COc2c(CCNCCN(C(=O)CCNCCc3cccc(Cl)c3)C3CCCCCC3)ccc(O)c2N1 [Example 68, 3-(3-Chlorophenethylamino)-N-cycloheptyl-N-(2-(2-(5-hydroxy-3-oxo-3,4-dihydro-2H-benzo[b][1,4]oxazin-8-yl)ethylamino)ethyl)propanamide bis(trifluoroacetate)]	158
O=C1COc2c(CCNCCN(C(=O)CCNCCc3ccccc3)C3CCCCC3)ccc(O)c2N1 [Example 23, N-Cyclohexyl-N-(2-(2-(5-hydroxy-3-oxo-3,4-dihydro-2H-benzo[b][1,4]oxazin-8-yl)ethylamino)ethyl)-3-(phenethylamino)propanamide bis(trifluoroacetate)]	126
O=C(CCNCCc1ccccc1)N(CCNCCc1ccc(O)c(O)c1)C1CCCCC1 [Example 22, N-Cyclohexyl-N-(2-(3,4-dihydroxyphenethylamino)ethyl)-3-(phenethylamino)propanamide bis(trifluoroacetate)]	200
CCCC[C@@H](C)N(CCNCCc1ccc(O)c2c1OCC(=O)N2)C(=O)CCNCCc1ccccc1Cl [Example 46, (R)-3-(2-Chlorophenethylamino)-N-(hexan-2-yl)-N-(2-(2-(5-hydroxy-3-oxo-3,4-dihydro-2H-benzo[b][1,4]oxazin-8-yl)ethylamino)ethyl)propanamide bis(trifluoroacetate)]	79.4
O=C1COc2c(CCNCCN(C(=O)CCNCCc3ccc(Cl)c(Cl)c3)C3CCCCC3)ccc(O)c2N1 [Example 30, N-Cyclohexyl-3-(3,4-dichlorophenethylamino)-N-(2-(2-(5-hydroxy-3-oxo-3,4-dihydro-2H-benzo[b][1,4]oxazin-8-yl)ethylamino)ethyl)propanamide bis(trifluoroacetate)]	251
O=C(CCNCCc1ccc(Cl)cc1)N(CCNCCc1ccc(O)c2[nH]c(=O)ccc12)C1CCCCCC1 [Example 4, 3-(4-Chlorophenethylamino)-N-cycloheptyl-N-(2-(2-(8-hydroxy-2-oxo-1,2-dihydroquinolin-5-yl)ethylamino)ethyl)propanamide bis(trifluoroacetate)]	79.4
O=C1COc2c(CCNCCN(C(=O)CCOCCc3ccccc3F)C3CCCCC3)ccc(O)c2N1 [Example 76, N-Cyclohexyl-3-(2-fluorophenethoxy)-N-(2-(2-(5-hydroxy-3-oxo-3,4-dihydro-2H-benzo[b][1,4]oxazin-8-yl)ethylamino)ethyl)propanamide trifluoroacetate]	1000
O=C(CCNCCc1cc(F)cc(F)c1)N(CCNCCc1ccc(O)c2[nH]c(=O)ccc12)C1CCCCC1 [Example 15, N-Cyclohexyl-3-(3,5-difluorophenethylamino)-N-(2-(2-(8-hydroxy-2-oxo-1,2-dihydroquinolin-5-yl)ethylamino)ethyl)propanamide bis(trifluoroacetate)]	501
CCCC[C@@H](C)N(CCNCCc1ccc(O)c2c1OCC(=O)N2)C(=O)CCNCCc1cc(F)cc(Cl)c1 [Example 50, (R)-3-(3-Chloro-5-fluorophenethylamino)-N-(hexan-2-yl)-N-(2-(2-(5-hydroxy-3-oxo-3,4-dihydro-2H-benzo[b][1,4]oxazin-8-yl)ethylamino)ethyl)propanamide bis(trifluoroacetate)]	200
O=C(CCNCCc1cc(F)ccc1F)N(CCNCCc1ccc(O)c2[nH]c(=O)ccc12)C1CCCCC1 [Example 17, N-Cyclohexyl-3-(2,5-difluorophenethylamino)-N-(2-(2-(8-hydroxy-2-oxo-1,2-dihydroquinolin-5-yl)ethylamino)ethyl)propanamide bis(trifluoroacetate)]	251
CCCC[C@@H](C)N(CCNCCc1ccc(O)c2c1OCC(=O)N2)C(=O)CCNCCc1cc(F)ccc1F [Example 54, (R)-3-(2,5-Difluorophenethylamino)-N-(hexan-2-yl)-N-(2-(2-(5-hydroxy-3-oxo-3,4-dihydro-2H-benzo[b][1,4]oxazin-8-yl)ethylamino)ethyl)propanamide bis(trifluoroacetate)]	79.4
O=C1COc2c(CCNCCN(C(=O)CCNCCc3ccc(F)c(F)c3)C3CCCCCC3)ccc(O)c2N1 [Example 67, N-Cycloheptyl-3-(3,4-difluorophenethylamino)-N-(2-(2-(5-hydroxy-3-oxo-3,4-dihydro-2H-benzo[b][1,4]oxazin-8-yl)ethylamino)ethyl)propanamide bis(trifluoroacetate)]	200
O=C1COc2c(CCNCCN(C(=O)CCNCCc3cccc(F)c3F)C3CCCCC3)ccc(O)c2N1 [Example 36, N-Cyclohexyl-3-(2,3-difluorophenethylamino)-N-(2-(2-(5-hydroxy-3-oxo-3,4-dihydro-2H-benzo[b][1,4]oxazin-8-yl)ethylamino)ethyl)propanamide bis(trifluoroacetate)]	398
CCCC[C@@H](C)N(CCNCCc1ccc(O)c2c1OCC(=O)N2)C(=O)CCNCCc1ccc(Cl)c(Cl)c1 [Example 55, (R)-3-(3,4-Dichlorophenethylamino)-N-(hexan-2-yl)-N-(2-(2-(5-hydroxy-3-oxo-3,4-dihydro-2H-benzo[b][1,4]oxazin-8-yl)ethylamino)ethyl)propanamide bis(trifluoroacetate)]	251
O=C1COc2c(CCNCCN(C(=O)CCNCCc3ccc(C(=O)O)cc3)C3CCCCC3)ccc(O)c2N1 [Example 43, 4-(2-(3-(Cyclohexyl(2-(2-(5-hydroxy-3-oxo-3,4-dihydro-2H-benzo[b][1,4]oxazin-8-yl)ethylamino)ethyl)amino)-3-oxopropylamino)ethyl)benzoic acid bis(trifluoroacetate)]	> 10000
O=C1COc2c(CCNCCN(C(=O)CCOCCc3ccccc3)C3CCCCC3)ccc(O)c2N1 [Example 70, N-Cyclohexyl-N-(2-(2-(5-hydroxy-3-oxo-3,4-dihydro-2H-benzo[b][1,4]oxazin-8-yl)ethylamino)ethyl)-3-phenethoxypropanamide trifluoroacetate]	1580
O=C(CCNCCc1cccc(Cl)c1)N(CCNCCc1ccc(O)c2[nH]c(=O)ccc12)C1CCCCCC1 [Example 3, 3-(3-Chlorophenethylamino)-N-cycloheptyl-N-(2-(2-(8-hydroxy-2-oxo-1,2-dihydroquinolin-5-yl)ethylamino)ethyl)propanamide bis(trifluoroacetate)]	79.4
O=C(CCNCCc1cccc(F)c1F)N(CCNCCc1ccc(O)c2[nH]c(=O)ccc12)C1CCCCC1 [Example 18, N-Cyclohexyl-3-(3-difluorophenethylamino)-N-(2-(2-(8-hydroxy-2-oxo-1,2-dihydroquinolin-5-yl)ethylamino)ethyl)propanamide bis(trifluoroacetate)]	398
Cc1cc(CCNCCC(=O)N(CCNCCc2ccc(O)c3c2OCC(=O)N3)C2CCCCCC2)ccc1F [Example 62, N-Cycloheptyl-3-(4-fluoro-3-methylphenethylamino)-N-(2-(2-(5-hydroxy-3-oxo-3,4-dihydro-2H-benzo[b][1,4]oxazin-8-yl)ethylamino)ethyl)propanamide bis(trifluoroacetate)]	39.8
CCCC[C@@H](C)N(CCNCCc1ccc(O)c2c1OCC(=O)N2)C(=O)CCNCCc1ccc(Cl)s1 [Example 49, (R)-3-(2-(5-Chlorothiophen-2-yl)ethylamino)-N-(hexan-2-yl)-N-(2-(2-(5-hydroxy-3-oxo-3,4-dihydro-2H-benzo[b][1,4]oxazin-8-yl)ethylamino)ethyl)propanamide bis(trifluoroacetate)]	316
O=C1COc2c(CCNCCN(C(=O)CCNCCc3cc(F)cc(F)c3)C3CCCCCC3)ccc(O)c2N1 [Example 65, N-Cycloheptyl-3-(3,5-difluorophenethylamino)-N-(2-(2-(5-hydroxy-3-oxo-3,4-dihydro-2H-benzo[b][1,4]oxazin-8-yl)ethylamino)ethyl)propanamide bis(trifluoroacetate)]	398
O=C1COc2c(CCNCCN(C(=O)CCNCCc3ccc(F)c(F)c3)C3CCCCC3)ccc(O)c2N1 [Example 42, N-Cyclohexyl-3-(3,4-difluorophenethylamino)-N-(2-(2-(5-hydroxy-3-oxo-3,4-dihydro-2H-benzo[b][1,4]oxazin-8-yl)ethylamino)ethyl)propanamide bis(trifluoroacetate)]	200
CCCC[C@@H](C)N(CCNCCc1ccc(O)c2c1OCC(=O)N2)C(=O)CCNCCc1ccc(F)c(F)c1 [Example 52, (R)-3-(3,4-Difluorophenethylamino)-N-(hexan-2-yl)-N-(2-(2-(5-hydroxy-3-oxo-3,4-dihydro-2H-benzo[b][1,4]oxazin-8-yl)ethylamino)ethyl)propanamide bis(trifluoroacetate)]	200
